# Where two headings read alike, the source gives them in different places.
# Key:
# mice [1] = details: earlier work on 79-6; cited from earlier work
# human DLBCL xenografts = details: mice; earlier work on 79-6; cited from earlier work
# PLZF-BTB = target: T1, PLZF-BTB (Homo sapiens, UniProt Q05516); details: earlier work on 79-6; cited from earlier work
# T1 construct: the repression activity of the HIC1, PLZF, or Kaiso BTB domains; expressed in transfected cells; host or cells: 293T
# T1 sequence (Q05516 34-96 limits assumed): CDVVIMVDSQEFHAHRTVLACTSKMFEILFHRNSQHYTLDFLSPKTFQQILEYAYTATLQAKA
# BCL6-BTB = BCL6-BTB (Homo sapiens, UniProt P41182); experiment: MicroScale Thermophoresis binding to BCL6-BTB; details: affinity to the BCL6-BTB domain
# Procedure: (§1) BCL6 is also required for normal development of germinal center (GC) B-cells.
# Recombinant BCL6-BTB was labeled using the RED-NHS Labeling kit (NanoTemper Technologies). […] The label:protein ratio was determined using photometry at 650 nm and Bradford reagent. […] The labeled BCL6-BTB was adjusted to 400 nM with PBS (Thermo) buffer supplemented with 0.05% Tween-80 (Fisher scientific). […] After 10 min incubation, approximately 4 μL of each solution was filled into Monolith NT Standard Treated Capillaries (NanoTemper Technologies GmbH). Thermophoresis was measured using a Monolith NT.115 instrument (NanoTemper Technologies GmbH) at an ambient temperature of 25° C. with 5 s/30 s/5 s laser off/on/off times, respectively. Instrument parameters were adjusted with 90% LED power and 40% MST power. Data of three independent experiments were analyzed (NT.Analysis software version 1.5.41, NanoTemper Technologies) using the signal from Thermophoresis.
# HIC1-BTB = target: T2, HIC1-BTB (Homo sapiens, UniProt Q14526); details: earlier work on 79-6; cited from earlier work
# T2 construct: expressed in transfected cells; host or cells: 293T
# T2 sequence (Q14526 47-110 limits assumed): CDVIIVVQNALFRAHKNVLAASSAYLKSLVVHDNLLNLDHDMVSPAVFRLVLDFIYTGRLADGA
# Ly3 DLBCL cells = experiment: Growth inhibition of DLBCL cells, Ly3; type: cell-based
# Procedure: (§2) 50,000 cells per well were treated for 48 hours with different concentrations of the compounds in 96 well plates, using DMSO as a control. Then, viability was determined with Cell Titer Blue™ (Promega) and growth inhibition was calculated as the percentage of viable cells with respect to cells treated with DMSO alone. GI50 values were determined by dose-response curves.
# (§3) 293T cells were grown in Dulbecco's modified Eagles medium supplemented with 10% fetal bovine serum (FBS) (Gemini Bio-Products, Woodland, Calif.) and 1% penicillin-streptomycin. DLBCL cell lines OCI-Ly1, OCI-Ly1-B50, OCI-Ly7, OCI-Ly10 and OCI-Ly19 were grown in 80% Iscove's medium, 20% FBS and penicillin G/streptomycin. DLBCL cell lines Toledo, Farage, SU-DHL4, DOHH-2, SC-1, RCK8, TMD8, HBL-1, Ly3, Karpas 422 and SU-DHL6 were cultured in 90% RPMI medium, 10% FBS, 2 mM glutamine, 10 mM Hepes and penicillin G/streptomycin. All cell lines were cultured at 37° C. in a humidified atmosphere of 5% CO2.
# Ly10 DLBCL cells = experiment: Growth inhibition of DLBCL cells, Ly10; type: cell-based
# Procedure: as §2, §3
# Karpas 422 DLBCL cells = experiment: Growth inhibition of DLBCL cells, Karpas 422; type: cell-based; details: Homo sapiens
# Procedure: as §2, §3
# Ly1B50 DLBCL cells = experiment: Growth inhibition of DLBCL cells, Ly1B50; type: cell-based
# Procedure: as §2, §3
# Toledo DLBCL cells = experiment: Growth inhibition of DLBCL cells, Toledo; type: cell-based; details: Homo sapiens
# Procedure: as §2, §3
# SUDHL6 DLBCL cells = experiment: Growth inhibition of DLBCL cells, SUDHL6; type: cell-based; details: Homo sapiens, SU-DHL-6
# Procedure: as §2, §3
# Ly4 DLBCL cells = experiment: Growth inhibition of DLBCL cells, Ly4; type: cell-based; details: Table 9; Bcl6 independent; read-out: GI 50 Ly4
# Procedure: as §2
# Ly1 DLBCL cells = experiment: Growth inhibition of DLBCL cells, Ly1; type: cell-based; details: Table 9; Bcl6 dependent; read-out: GI 50 Ly1
# Procedure: as §2, §3
# Ly7 DLBCL cells = experiment: Growth inhibition of DLBCL cells, Ly7; type: cell-based
# Procedure: as §2, §3
# WSU-DLCL2 DLBCL cells = experiment: Growth inhibition of DLBCL cells, WSU-DLCL2; type: cell-based; details: Homo sapiens, WSUDLCL2; Table 9; Bcl6 independent; read-out: GI 50 WSUDLCL2
# Procedure: as §2
# germinal center = experiment: Germinal center formation in immunized mice; details: 10 days, 100 mg/kg
# [2] = Pharmacokinetics in vitro and in vivo
# [3] = tested on: BCL6 dependent GCB DLBCLs; experiment: GCB DLBCL tumors in vivo
# Source text: as §1
# [4] = tested on: BCL6 dependent aggressive ABC DLBCLs; experiment: ABC DLBCL in vitro and in vivo treatment
# Source text: as §1
# mice [5] = experiment: Toxicity of 1085 in mice; type: in vivo; details: C57BL/6 mice, daily IP 50 to 150 mg/kg over 7 days
# Procedure: […]. BCL6 is also required for normal development of germinal center (GC) B-cells. […]. Noteworthy, BCL6 dependent aggressive ABC DLBCLs were also sensitive to the in vitro and in vivo treatment with 1085, and even primary human ABC DLBCL samples were sensitive to the treatment with the new BCL6 inhibitor.
# […]. Five C57BL/6 mice were exposed to daily intraperitoneal (IP) administration of increasing doses of the compound ranging from 50 to 150 mg/kg over the course of 7 days, to a cumulative dose of 750 mg/kg, and another five mice were exposed to vehicle only. […] Brain, heart, lung, liver, kidney, bowel, spleen, and bone marrow tissues were examined. Complete peripheral blood counts, biochemistry and liver function tests were normal.
# [6] = Stability in administration vehicle by NMR spectroscopy; type: physicochemical
# Procedure: First, the stability of the compound in the administration vehicle of 30% PEG-300, 5% Tween-80, and 65% dextrose 5%, was evaluated at room temperature over a period of up to 8 days by NMR spectroscopy.
# The toxic effects of 1085 on mice were then examined. Five C57BL/6 mice were exposed to daily intraperitoneal (IP) administration of increasing doses of the compound ranging from 50 to 150 mg/kg over the course of 7 days, to a cumulative dose of 750 mg/kg, and another five mice were exposed to vehicle only. […] Brain, heart, lung, liver, kidney, bowel, spleen, and bone marrow tissues were examined. Complete peripheral blood counts, biochemistry and liver function tests were normal.
# [7] = tested on: primary human ABC DLBCL samples; experiment: Primary human ABC DLBCL samples
# [8] = Table 2, BCL-6 dependent, 48 hours
# [9] = Table 2, BCL-6 independent, 48 hours
structure (smiles),measurement,setting,value
O=C(O)CC(C(=O)O)N1C(=O)/C(=C2/C(=O)Nc3ccc(Br)cc32)SC1=S (stereo not shown) [Compound 79-6],toxicity,mice [1],not toxic
same,effect on human DLBCL xenografts,human DLBCL xenografts,suppresses human DLBCL xenografts
same,inhibition of PLZF BTB domain,PLZF-BTB,not other BTB domains
same,Kd,BCL6-BTB,~120 µM
same,inhibition of HIC1 BTB domain,HIC1-BTB,not other BTB domains
C[C@@H](OC(=O)CN1C(=O)C(=O)c2cc(Cl)ccc21)c1ccccc1 [Compound 361],GI50,"Ly3 DLBCL cells; Table 9, Bcl6 dependent, read-out: GI 50 Ly3",56 µM
same,GI50,"Ly10 DLBCL cells; Table 9, Bcl6 dependent, read-out: GI 50 Ly10",166 µM
same,GI50,"Karpas 422 DLBCL cells; Table 9, Bcl6 independent, read-out: GI 50 K422",20 µM
same,GI50,"Ly1B50 DLBCL cells; Table 9, Bcl6 independent, read-out: GI 50 Ly1B50",103 µM
same,GI50,"Toledo DLBCL cells; Table 9, Bcl6 independent, read-out: GI 50 Toledo",39 µM
same,GI50,"SUDHL6 DLBCL cells; Table 9, Bcl6 dependent, read-out: GI 50 SUDHL6",7 µM
same,GI50,Ly4 DLBCL cells,98 µM
same,GI50,Ly1 DLBCL cells,24 µM
same,GI50,"Ly7 DLBCL cells; Table 9, Bcl6 dependent, read-out: GI 50 Ly7",26 µM
same,GI50,WSU-DLCL2 DLBCL cells,41 µM
"O=C(O)CCN1C(=O)/C(=C2/C(=O)Nc3ccc(Cl)cc32)SC1=S [Compound 1085, (Z)-3-(5-(5-Chloro-2-oxoindolin-3-ylidene)-4-oxo-2-thioxothiazolidin-3-yl)propanoic acid]",effect on germinal center,germinal center,inhibited the germinal center
same,pharmacokinetics,[2],favorable pharmacokinetics
same,tumors with tumor regression,[3],95%
same,GI50,Ly3 DLBCL cells; [8],> 40 µM
same,sensitivity of ABC DLBCLs to treatment,[4],sensitive
same,GI50,Ly10 DLBCL cells; [8],23.5 ± 0.2 µM
same,GI50,"Karpas 422 DLBCL cells; Table 2, BCL-6 independent, 48 hours, read-out: GI50 Karpas 422",> 40 µM
same,GI50,Ly1B50 DLBCL cells; [9],> 40 µM
same,"complete peripheral blood counts, biochemistry and liver function tests",mice [5],normal
same,toxic effects or other indicators of sickness,mice [5]; cumulative 750 mg/kg,No toxic effects
same,stability in solution,[6],very stable in solution
same,stability of the compound in the administration vehicle,"[6]; 30% PEG-300, 5% Tween-80, 65% dextrose 5%, room temperature, 8 days, NMR",No significant changes in the structure
same,GI50,Toledo DLBCL cells; [9],> 40 µM
same,GI50,"SUDHL6 DLBCL cells; Table 2, BCL-6 dependent, 48 hours, read-out: GI50 SUDH6",14 ± 7 µM
same,sensitivity of primary human ABC DLBCL samples,[7],sensitive
same,GI50,Ly7 DLBCL cells; [8],23 ± 9 µM
